Laboratory results from patent publication US7495027B2, “3-aryl-4-hydroxyfuranone compounds and the human and animal health use thereof” (Wyeth, priority 2003, dated 2009).
≈ marks a conversion by molar mass, not a printed value. Where two headings read alike, the source gives them in different places.

Key:
[1] = target: T1, S. aureus Enopyruvyl-UPD-N-acetylglucosamine reductase, Mur B (Staphylococcus aureus, UniProt P61431); experiment: biochemical
T1 sequence (P61431 1-307): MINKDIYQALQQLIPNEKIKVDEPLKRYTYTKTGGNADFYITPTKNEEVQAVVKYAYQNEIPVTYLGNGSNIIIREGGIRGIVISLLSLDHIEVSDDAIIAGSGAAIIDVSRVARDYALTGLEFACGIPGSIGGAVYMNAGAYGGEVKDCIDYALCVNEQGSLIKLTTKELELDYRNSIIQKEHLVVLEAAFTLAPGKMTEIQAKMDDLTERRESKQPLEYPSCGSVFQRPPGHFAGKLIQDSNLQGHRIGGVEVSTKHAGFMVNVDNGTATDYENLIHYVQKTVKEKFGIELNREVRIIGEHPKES

[2] = target: E. coli Uridine-diphosphate-N-acetvimuramoyl: L-alanine lipase, MurC (Escherichia coli, UniProt P17952); experiment: Inhibitory activity against MurC (E. coli); format: biochemical
Chain of E. coli Uridine-diphosphate-N-acetvimuramoyl: L-alanine lipase, MurC (P17952 whole entry): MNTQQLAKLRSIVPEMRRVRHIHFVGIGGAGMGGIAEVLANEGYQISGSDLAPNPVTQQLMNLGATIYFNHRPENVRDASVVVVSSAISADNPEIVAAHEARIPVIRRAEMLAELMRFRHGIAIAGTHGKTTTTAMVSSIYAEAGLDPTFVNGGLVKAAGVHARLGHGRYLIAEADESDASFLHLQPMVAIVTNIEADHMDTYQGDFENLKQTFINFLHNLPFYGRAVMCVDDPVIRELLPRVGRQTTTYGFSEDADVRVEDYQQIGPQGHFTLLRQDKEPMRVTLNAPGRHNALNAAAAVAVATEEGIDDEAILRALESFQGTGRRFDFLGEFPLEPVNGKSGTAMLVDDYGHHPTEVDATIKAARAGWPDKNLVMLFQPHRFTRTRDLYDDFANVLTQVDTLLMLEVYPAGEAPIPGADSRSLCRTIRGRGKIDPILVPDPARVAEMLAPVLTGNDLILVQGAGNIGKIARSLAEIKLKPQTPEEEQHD

enterococci = experiment: Minimum inhibitory concentration, microdilution broth method, enterococci; format: cell-based; settings: Mueller-Hinton broth, 18-22 hours at 35° C.; for MIC: Enterococcus faecalis
Summary of the method: (§1)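 Broth microdilution MIC per NCCLS M7-A5. Staphylococci and enterococci tested in Mueller-Hinton broth; streptococci in Mueller-Hinton broth with 5% lysed horse blood. Strains include clinical isolates resistant to methicillin, penicillin and/or vancomycin.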

Streptococci = experiment: Minimum inhibitory concentration, microdilution broth method, streptococci; format: cell-based; settings: Mueller-Hinton broth with 5% horse blood, 18-22 hours at 35° C.; for MIC: S. pneumo GC 1894
Summary of the method: as §1

[3] = target: E. coli Uridine-diphosphate-N-acetylmuramoyl-L-alanine: D-glutamate liease, MurD (Escherichia coli, UniProt P14900); experiment: biochemical; settings: (E) E. coli enzyme
Chain of E. coli Uridine-diphosphate-N-acetylmuramoyl-L-alanine: D-glutamate liease, MurD (P14900 whole entry): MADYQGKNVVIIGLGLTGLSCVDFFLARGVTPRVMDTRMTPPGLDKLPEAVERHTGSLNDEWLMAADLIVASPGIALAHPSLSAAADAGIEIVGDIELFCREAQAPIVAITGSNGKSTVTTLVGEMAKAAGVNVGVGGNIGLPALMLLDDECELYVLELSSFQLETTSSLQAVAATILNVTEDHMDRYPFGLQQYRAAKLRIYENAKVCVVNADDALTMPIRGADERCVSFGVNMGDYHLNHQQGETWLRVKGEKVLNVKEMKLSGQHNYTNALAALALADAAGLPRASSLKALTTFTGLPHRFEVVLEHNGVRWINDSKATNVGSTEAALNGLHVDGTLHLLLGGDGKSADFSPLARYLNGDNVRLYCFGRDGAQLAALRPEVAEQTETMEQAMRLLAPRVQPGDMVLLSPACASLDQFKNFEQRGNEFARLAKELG
Summary of the method: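 Compound working solutions reach 100 μg/mL in 50 mM Tris/HCl (pH 8.5) after dilution of 10 mg/mL DMSO stocks; final level in the well not given here. Reaction buffer finals: 2 mM ATP, 50 mM MgCl2, 83 mM Tris/HCl, pH 8.0.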

[4] = target: E. coli UDP-N-acetylglucosamine enolpyruvoyl transferase, MurA (Escherichia coli, UniProt P0A749); experiment: biochemical; settings: (E) E. coli enzyme
Chain of E. coli UDP-N-acetylglucosamine enolpyruvoyl transferase, MurA (P0A749 whole entry): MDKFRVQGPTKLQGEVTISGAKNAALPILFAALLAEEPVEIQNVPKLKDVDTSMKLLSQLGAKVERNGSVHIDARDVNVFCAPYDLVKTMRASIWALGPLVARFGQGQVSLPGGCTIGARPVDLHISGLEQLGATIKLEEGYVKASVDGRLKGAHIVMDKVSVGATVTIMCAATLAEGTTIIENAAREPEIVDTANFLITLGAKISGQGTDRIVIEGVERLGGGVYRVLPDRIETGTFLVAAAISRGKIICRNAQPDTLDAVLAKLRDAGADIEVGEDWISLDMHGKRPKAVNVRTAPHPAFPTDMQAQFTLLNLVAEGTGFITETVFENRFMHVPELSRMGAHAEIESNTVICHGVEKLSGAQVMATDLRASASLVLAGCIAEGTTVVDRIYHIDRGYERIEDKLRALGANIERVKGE
Summary of the method: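 Enzyme in 50 mM Tris/HCl pH 8.0 with 5 mM DTT and 20% glycerol was pre-incubated 10 min at 37° C with test compound in DMSO/water. Tris/BME and assay buffer then started the 1 hr, 37° C reaction, with a baseline 340 nm reading taken at start. Stop solution followed, and colour developed 30 minutes.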

[5] = (S) S. aureus enzyme, read-out: MurB IC50 (converted)
[6] = (E) E. coli enzyme, read-out: MurC IC50 (converted)
[7] = E. faecalis GC 2242, read-out: MIC E. faecalis GC 2242
[8] = E. faecalis GC 4555, read-out: MIC E. faecalis GC 4555

| Structure (SMILES) | MurB IC50 ([1]; (S) S. aureus enzyme) [µg/mL] | MurC IC50 ([2]; (E) E. coli enzyme) [µg/mL] | MIC E. faecalis GC 2242 (enterococci; E. faecalis GC 2242) [µg/mL] | MIC E. faecalis GC 4555 (enterococci; E. faecalis GC 4555) [µg/mL] | MIC S. pneumo GC 1894 (Streptococci) [µg/mL] | IC50 [1, 5] [µM] | IC50 [2, 6] [µM] | IC50 [3] [µM] | MIC (enterococci; [7]) [µg/mL] | MIC (enterococci; [8]) [µg/mL] | MIC (Streptococci) [µg/mL] | IC50 [4] [µM] | MurA IC50 [4] | MurD IC50 [3] [µg/mL] | IC50 [1] [µM] | IC50 ([2]; MurC IC50, (E) E. coli enzyme) [µM] |
| --- | --- | --- | --- | --- | --- | --- | --- | --- | --- | --- | --- | --- | --- | --- | --- | --- |
| O=C1OC(=Cc2cccc3ccccc23)C(O)=C1c1ccc(C=NO)cc1 (mixture of isomers) [Example 73] | 12 | 19 | >128 | >128 | 64 | – | – | – | – | – | – | – | – | – | – | – |
| COc1ccccc1-c1ccc(/C=C2\OC(=O)C(c3cc(Cl)cc(Cl)c3)=C2O)cc1OC [Example 19] | – | – | – | – | – | 21.3 | 12.8 | > 53.3 | 8 (≈ 17 µM) | 8 (≈ 17 µM) | 0.5 (≈ 1.07 µM) | – | – | – | – | – |
| COc1ccccc1-c1ccc(/C=C2\OC(=O)C(c3ccc(Cl)c(Cl)c3)=C2O)cc1OC [Example 20] | – | – | – | – | – | 6.39 | 23.4 | > 53.3 | 16 (≈ 34.1 µM) | 16 (≈ 34.1 µM) | 0.5 (≈ 1.07 µM) | – | – | – | – | – |
| O=C1O/C(=C\c2ccc(Cl)cc2)C(O)=C1c1ccc2ccccc2c1 [Example 43] | – | – | – | – | – | 14.3 | 11.5 | > 71.7 | 4 (≈ 11.5 µM) | 16 (≈ 45.9 µM) | 1 (≈ 2.87 µM) | 57.3 | – | – | – | – |
| O=C1O/C(=C\c2cccc3ccccc23)C(O)=C1c1cccc2ccccc12 [Example 47] | – | – | – | – | – | 27.4 | 30.2 | > 68.6 | 32 (≈ 87.8 µM) | 64 (≈ 176 µM) | 16 (≈ 43.9 µM) | > 68.6 | – | – | – | – |
| O=C1O/C(=C\c2cccc3ccccc23)C(O)=C1c1cc(Cl)cc(Cl)c1 [Example 70] | – | – | – | – | – | 13 | 13 | 44.4 | 2 (≈ 5.22 µM) | 2 (≈ 5.22 µM) | 0.5 (≈ 1.3 µM) | – | – | – | – | – |
| O=C1O/C(=C\c2cccc3ccccc23)C(O)=C1c1ccc(C(F)(F)F)cc1 [Example 71] | – | – | – | – | – | 26.2 | 28.8 | > 65.4 | 4 (≈ 10.5 µM) | 8 (≈ 20.9 µM) | 0.5 (≈ 1.31 µM) | – | – | – | – | – |
| COc1cccc(C2=C(O)/C(=C/c3cccc4ccccc34)OC2=O)c1 [Example 72] | – | – | – | – | – | 58.1 | > 72.6 | > 72.6 | > 128 | > 128 | 32 (≈ 92.9 µM) | – | – | – | – | – |
| COC(=O)c1ccc(C2=C(O)/C(=C/c3cccc4ccccc34)OC2=O)cc1 [Example 74] | – | – | – | – | – | 26.9 | 51 | > 67.1 | > 128 | > 128 | 32 (≈ 85.9 µM) | – | – | – | – | – |
| CCOC(=O)c1cccc(C2=C(O)C(=Cc3cccc4ccccc34)OC2=O)c1 [Example 75] | 24 | 18 | >128 | 64 (≈ 166 µM) | 32 (≈ 82.8 µM) | – | – | – | – | – | – | – | – | – | – | – |
| O=Cc1cccc(C2=C(O)/C(=C/c3cccc4ccccc34)OC2=O)c1 [Example 76] | – | – | – | – | – | 14.6 | 14.6 | 67.2 | > 128 | > 128 | 64 (≈ 187 µM) | – | – | – | – | – |
| O=C1O/C(=C\c2cccc3ccccc23)C(O)=C1c1cccc(C=NO)c1 [Example 77] | 10 | 9 | >128 | >128 | 64 (≈ 179 µM) | – | – | – | – | – | – | – | – | – | – | – |
| O=C1O/C(=C\c2cccc(-c3cccc(Cl)c3)c2)C(O)=C1c1cccc(Cl)c1 [Example 134] | – | 5 | – | – | – | 4.89 | – | – | 4 (≈ 9.77 µM) | 8 (≈ 19.5 µM) | 1 (≈ 2.44 µM) | – | 5 (E) μg/mL | 6 | – | – |
| O=C1O/C(=C\c2cccc(-c3cc(Cl)cc(Cl)c3)c2)C(O)=C1c1cc(Cl)cc(Cl)c1 [Example 136] | – | 11 | – | – | – | 4.18 | – | 12.5 | 0.5 (≈ 1.05 µM) | 1 (≈ 2.09 µM) | 0.25 (≈ 0.523 µM) | – | – | – | – | – |
| O=C1O/C(=C\c2ccccc2-c2ccc(Cl)cc2)C(O)=C1c1ccc(Cl)cc1 [Example 137] | – | – | – | – | – | 7.33 | 41.5 | – | 4 (≈ 9.77 µM) | 4 (≈ 9.77 µM) | 2 (≈ 4.89 µM) | – | – | – | – | – |
| O=C1O/C(=C\c2ccc(Cl)cc2)C(O)=C1c1ccc(-c2ccccc2)c(F)c1 [Example 138] | – | – | – | – | – | 7.64 | 12.7 | – | 4 (≈ 10.2 µM) | 8 (≈ 20.4 µM) | 0.5 (≈ 1.27 µM) | – | – | – | – | – |
| O=C1O/C(=C\c2cccc3ccccc23)C(O)=C1c1ccc(-c2ccccc2)cc1 [R=H, R1=4-biphenyl, R2=1-naphthyl] | – | – | – | – | – | – | – | > 64 | 4 (≈ 10.2 µM) | 16 (≈ 41 µM) | 1 (≈ 2.56 µM) | 58.9 | – | – | 25.6 | 15.4 |
